In brackets after ≈: the same amount, converted by molar mass. Several values for one entry are separate records, joined by “and”; a condition that tells them apart may be missing. Identical values can stand only once. Like-named read-outs stand apart in the source and are kept apart here.
What was measured:
in vitro = format: cell-based; settings: human; HepG2 cells in DMEM/10% FBS supplemented with glucose; read-out: Cytotoxicity (IC50) Glucose
HepG2 cells = test: in vitro; format: cell-based; settings: HepG2 cells in DMEM/10% FBS with galactose (mitochondrial toxicity); read-out: Cytotoxicity (IC50) Galactose
[1] = C57Bl/6 mice, oral, 10 mg/kg single dose
[2] = test system: Mtb in J774 murine macrophages; test: Intracellular killing assay in murine macrophage J774; settings: 1–50-fold MIC, 4 or 7 days
Procedure: For the ex vivo efficacy test, J774 cells (5 × 10^5 cells/well) were seeded in flat-bottom 24-well plates (Corning Inc.) in DMEM GlutaMAX (Gibco/ThermoFisher Scientific) supplemented with 10% fetal-bovine serum, 20 mM HEPES, and 0.5 mM sodium pyruvate (hereafter abbreviated as DMEM/FBS). Cells were infected with Mtb (5 × 10^5 cells/well, MOI 1) for 24 h; this was followed by medium removal and washing (2×) with an equal volume of Dulbecco’s PBS. Infected cells were fed DMEM/FBS and exposed to test compounds at 1×, 10×, 20×, and 50× MIC in medium (500 μL/well). Cells were incubated at 37 °C with 95% humidity and 5% CO2 in an incubator for 7 days. The medium was changed every 4 days. After 4 and 7 days of incubation, 0.1% SDS was added to each well to lyse the J774 cells. After 5 min, the lysate was thoroughly mixed and diluted in 7H9/ADC, and appropriate dilutions were plated in duplicate on 7H11/OADC plates.

iniBAC promoter = format: cell-based, Mycobacterium tuberculosis
Mtb strain H37Rv = test: MIC determination against Mtb H37Rv in different media; format: cell-based, Mycobacterium tuberculosis
[3] = test system: anaerobic nonreplicating Mtb cells; format: cell-based, Mycobacterium tuberculosis; settings: 7 days exposure, 1–50× aerobic MIC, Wayne model
recA and radA reporters = format: cell-based, Mycobacterium tuberculosis
actively replicating Mtb = format: cell-based, Mycobacterium tuberculosis
Mtb cydC::aph strain = format: cell-based, Mycobacterium tuberculosis

Cn1c(Cc2ccccc2C(F)(F)F)nc(C(=O)NCc2ccccc2)c(O)c1=O [Compound P01, N-Benzyl-5-hydroxy-1-methyl-6-oxo-2-(2-(trifluoromethyl)benzyl)-1,6-dihydropyrimidine-4-carboxamide]
IC50 (in vitro): > 100 µM
IC50 (HepG2 cells): > 100 µM
AUC [1]: 1060 ng·h/mL
CL [1]: 9.48
Tmax [1]: 1.0 h
Vd [1]: 33.7 L/kg
Cmax ([1]; suspension): 250 ng/mL
T1/2 ([1]; 10 mg/kg): 4 h and 4.1 h
activity against Mtb replication in J774 murine macrophages [2]: active
reporter-gene assay cell wall (iniBAC promoter): positive
MIC (Mtb strain H37Rv; Mycobacterium tuberculosis, H37RV, Mtb H37Rv in GAST (Table 2), read-out: MIC GAST): 0.59 µM
MIC (Mtb strain H37Rv; Mycobacterium tuberculosis, H37RV, Mtb H37Rv, GAST medium (Table 1), read-out: MIC GAST): 0.4 ± 0.2 µM
MIC (Mtb strain H37Rv; Mycobacterium tuberculosis, H37RV, pH 6, read-out: MIC nitrite/butyrate): 12.5 µM
MIC (Mtb strain H37Rv; Mycobacterium tuberculosis, H37RV, supplementary CSV, read-out: MIC in 7H9/ADC): 4.7 µM
MIC (Mtb strain H37Rv; Mycobacterium tuberculosis, H37RV, supplementary CSV, read-out: MIC in GAST/Fe): 0.59 µM
MIC (Mtb strain H37Rv; Mycobacterium tuberculosis, H37RV, read-out: MIC 7H9/ADC): 4.7 ± 1.5 µM
MIC (Mtb strain H37Rv; Mycobacterium tuberculosis, H37RV, read-out: MIC Chol): 1.6 µM
MIC (Mtb strain H37Rv; Mycobacterium tuberculosis, H37RV, read-out: MIC GBSA or DBSA): 3.1 µM
MIC (Mtb strain H37Rv; Mycobacterium tuberculosis, H37RV, read-out: MIC in 7H9/ADC): ~1.9 µg/mL
MIC (Mtb strain H37Rv; Mycobacterium tuberculosis, H37RV, read-out: MIC, DprE1 wild type): 3.13 µM
MIC (Mtb strain H37Rv; read-out: MIC 7H9/ADC): 4.7 µM
bactericidal activity against anaerobic nonreplicating Mtb [3]: lacked bactericidal activity
reporter-gene assay DNA damage (recA and radA reporters): no induction
logarithmic reduction in colony-forming units (actively replicating Mtb): 1–2 log
MIC CydKO (Mtb cydC::aph strain): 6.2 µM (≈ 2.59 µg/mL)
